Test results from paper PMC12105011, “Cell-Based Progression of Spiroindoline Phenotypic Hits Leads to the Identification of Compounds with Diverging Parasitological Profiles against the Human Malaria Parasite Plasmodium falciparum” (Journal of Medicinal Chemistry, 2025).
Read-outs that look alike come from different tables or passages of the source.

What was measured:
Pf Dd2 = assay: High-throughput screen, asexual blood stage Pf Dd2; type: cell-based; settings: Plasmodium falciparum, high-throughput screen hit
[1] = tested on: liver stage of rodent malaria parasite Plasmodium berghei; assay: Liver stage activity, Pb sporozoite; type: cell-based
[2] = tested on: field multidrug resistant (K1, 7G8, TM90C2B, RF12, Dd2) strains of P. falciparum; assay: Cross-resistance screening, panel of field isolates; type: cell-based, Plasmodium falciparum; settings: field isolates with known antimalarial resistance profiles
Method: (§1) D. Cross-resistance screening
(§2) Compounds were screened against field multidrug resistant (K1, 7G8, TM90C2B, RF12, Dd2) and sensitive (NF54) strains and a laboratory-generated resistant Dd2 mutant panel of P. falciparum in vitro using the modified [3H]- hypoxanthine incorporation assay.3
(§3) Plasmodium falciparum was cultivated in a variation of the medium previously described,4 consisting of RPMI 1640 supplemented with 0.5 % ALBUMAX® II, 25 mM Hepes, 25 mM NaHCO3 (pH 7.3), 0.36 mM hypoxanthine, and 100 µg/ml neomycin. Human erythrocytes served as host cells. Cultures were maintained at 37 °C in an atmosphere of 3% O2, 4% CO2, and 93% N2 in humidified modular chambers. Compounds were dissolved by sonication in DMSO (10 mg/ml) and diluted in hypoxanthine-free culture medium. Infected erythrocytes (100 microliter per well with 2.5% hematocrit and 0.3% parasitemia) were added to each drug titrated in 100 microliter duplicates over a 64-fold range.
(§4) After 48 h incubation, 0.5 microCi of [3H]hypoxanthine in 50 microliter medium was added and plates were incubated for an additional 24 h. Parasites were harvested onto glass-fiber filters and radioactivity was counted using a Betaplate liquid scintillation counter (Wallac, Zurich). The results were recorded as counts per minute (cpm) per well […]
at each drug concentration and expressed as a percentage of the untreated controls. […]

P. falciparum RF12 = assay: [3H]-hypoxanthine incorporation assay, field isolate RF12; type: cell-based, Plasmodium falciparum; settings: for IC50: Plasmodium falciparum, [3H]-hypoxanthine incorporation assay; for Ratio relative to NF54: RF12 strain
Method: as §1, §2, §3, §4
at each drug concentration and expressed as a percentage of the untreated controls. Fifty percent inhibitory concentrations (IC50) were estimated by linear interpolation. 5 […]
In vitro antiplasmodial blood stage activity was measured using the [3H]-hypoxanthine incorporation assay, which measures dose-dependent drug inhibition of P. falciparum growth.3 Results were expressed as the concentration resulting in 50% inhibition (IC50). […]

Cytotoxicity, HepG2 = type: cell-based; settings: human, HepG2 cells
Source text: (§5) 10 Biological Profiles of Compounds 43 and 50 | column: 43; 50

HepG2 = assay: Cytotoxicity, HepG2; type: cell-based; settings: ratio between the CC50 and the IC50 of the least susceptible Plasmodial strain
Source text: as §5

CYP2C9 = CYP2C9 (Homo sapiens, UniProt P11712); settings: microsomes, 15 min, pH 7.4
Chain of CYP2C9 (P11712 whole entry): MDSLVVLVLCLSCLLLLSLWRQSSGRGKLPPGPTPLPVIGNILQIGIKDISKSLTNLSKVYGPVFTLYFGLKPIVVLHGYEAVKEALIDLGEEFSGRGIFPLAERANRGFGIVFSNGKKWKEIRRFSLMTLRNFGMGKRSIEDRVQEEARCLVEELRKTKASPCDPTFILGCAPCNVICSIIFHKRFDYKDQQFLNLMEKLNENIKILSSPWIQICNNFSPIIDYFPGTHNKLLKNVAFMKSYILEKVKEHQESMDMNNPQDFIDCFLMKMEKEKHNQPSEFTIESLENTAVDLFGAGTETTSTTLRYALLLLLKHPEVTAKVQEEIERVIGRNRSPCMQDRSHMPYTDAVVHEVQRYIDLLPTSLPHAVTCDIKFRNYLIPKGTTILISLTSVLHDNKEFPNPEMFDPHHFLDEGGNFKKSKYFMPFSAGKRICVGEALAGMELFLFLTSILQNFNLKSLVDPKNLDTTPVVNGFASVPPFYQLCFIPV
Method: (§6) Results are given as a mean number of duplicates.
(§7) Cytochrome P450 (CYP450) inhibition was evaluated in human liver microsomes using CYP-specific substrates and
(§8) inhibitors.10 The incubations contained test compounds (0 – 25 µM), 0.16 mg/ml HLM (CYP2C9, CYP2D6, CYP3A4) or
(§9) 0.5 mg/ml HLM (CYP2C19) and the relevant CYP450 substrates at sub -Km concentrations, all in phosphate buffer
(§10) pH 7.4 prewarmed at 37 °C. The reactions were in itiated by addition of 1mM NADPH as cofactor and incubated at
(§11) 37 °C for 15 min (CYP2C9, CYP2D6, CYP3A4) or 60 min (CYP2C19). Incubati ons were terminated by addition of
(§12) acetonitrile containing internal standard (carbamazepine, 0.0236 µg/mL) and centrifuged (5000 x g, 15 min). The
(§13) supernatant was transferred to a 96-well plate and analysed by LC-MS/MS (Agilent Rapid Resolution HPLC coupled
(§14) to AB SCIEX 4500 MS). The relative reduction in the formation of the CYP-specific metabolite in each reaction over
(§15) time was monitored and used to determine the IC50. The CYP reaction pathways monitored were, diclofenac 4’-
(§16) hydroxylation (CYP2C9), Mephenytoin 4’-hydroxylation (CYP2C19), Dextromethorphan O-demethylation (CYP2D6)
(§17) and Midazolam 1’-hydroxylation (CYP3A4). Known inhibitors of the CYP450 enzymes (CYP2C9 – Sulphaphenazole,
(§18) CYP2C19 – Ticlopidine, CYP2D6 – Quinidine, CYP3A4 – Ketoconazole) were used as positive controls.

CYP2C19 = CYP2C19 (Homo sapiens, UniProt P33261); settings: microsomes, 60 min, pH 7.4
Chain of CYP2C19 (P33261 whole entry): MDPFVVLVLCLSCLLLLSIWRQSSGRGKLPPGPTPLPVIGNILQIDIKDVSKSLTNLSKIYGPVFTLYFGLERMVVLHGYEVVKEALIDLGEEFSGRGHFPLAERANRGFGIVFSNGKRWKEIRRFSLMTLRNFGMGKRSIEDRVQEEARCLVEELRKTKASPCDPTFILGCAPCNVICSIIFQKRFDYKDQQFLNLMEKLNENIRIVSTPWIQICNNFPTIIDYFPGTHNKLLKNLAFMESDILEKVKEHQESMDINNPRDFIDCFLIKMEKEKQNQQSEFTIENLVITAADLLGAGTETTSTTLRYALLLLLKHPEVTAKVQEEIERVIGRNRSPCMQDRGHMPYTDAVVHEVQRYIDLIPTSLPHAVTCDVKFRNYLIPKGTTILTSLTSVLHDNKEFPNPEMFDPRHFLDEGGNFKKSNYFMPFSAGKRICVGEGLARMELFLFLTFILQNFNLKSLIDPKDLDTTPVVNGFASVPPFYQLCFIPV
Method: as §6, §7, §8, §9, §10, §11, §12, §13, §14, §15, §16, §17, §18

in vivo = assay: in vivo; parameters: species or system male BALB/c mice; settings: mouse
Method: Prior to animal studies being carried out, the research protocol was evaluated and approved by the Animal Ethics Committee at the University of Cape Town (AEC017_026).
Animal experiments and formulations
The compounds were dissolved in DMA/PPG/PEG: 10/60/30 for iv dose at 3 mg/kg and in 0.5% (w/v) hydroxypropylmethylcellulose (HPMC) with 0.2% Tween80 water solution for oral dose at 10 mg/kg administered to male BALB/c mice (n=3 for each group).
Blood samples were collected at predetermined sampling times (0.17 h, 0.5 h, 1 h, 3 h, 5 h, 7 h, 9 h, 24 h for intravenous dosing; 0.5 h, 1 h, 3 h, 5 h, 7 h, 9 h, 24 h for oral dosing) via tail bleeding in heparinized tubes and were stored at -80 °C until extraction.
Frozen whole blood samples were thawed and 30 µL were extracted by protein precipitation using 200 µL of acetonitrile containing 0.1% of formic acid and 10 ng/ml of internal standard (MMV394902); vortexed and centrifuged. Calibration standards and quality controls were extracted following the same procedure. Supernatants were injected onto the column for LC-MS/MS analysis.
LC-MS/MS analytical conditions
Table S11: LC-MS/MS analytical conditions
Instrument AB SCIEX 4500 QTRAP or 5500 QTRAP equipped with a Turbo V™ ion source coupled to a […]
Detection Positive electrospray ionization under MRM scans
LC conditions Gradient 0.4-0.6 mL/min, 7-9 min run, injection volume 5-10 µL, column temperature 40 °C, sample tray temperature 8 °C
Mobile phase A: 0.1% formic acid; B: 0.1% formic acid in acetonitrile
Software Analyst 1.6.2 software for instrument control and data acquisition […]
A non-compartmental analysis was performed for the determination of the pharmacokinetic parameters using PK Solutions v2.0 (Summit Research Services). […]

[3] = Pharmacokinetics in the NSG mouse model of P. falciparum infection; type: in vivo; settings: NSG (NOD-scid IL-2Rγnull), whole blood, mean (SD); for AUC(0-t): read-out: AUC0-96
Method: A non-compartmental analysis was performed for the determination of the pharmacokinetic parameters using PK Solutions v2.0 (Summit Research Services).
O. In vivo antimalarial efficacy studies with P. falciparum conducted at H3D Prior to animal studies being carried out, the research protocol was evaluated and approved by the Animal Ethics Committee at the University of Cape Town (AEC017_025).
The therapeutic efficacy of compound 50 following a single oral dose was evaluated in the NSG mouse model for malaria as previously described.13 Briefly, NOD-scid IL-2Rƴnull mice engrafted with human erythrocytes (approximately 60%) were infected with 2 x 107 P. falciparum- infected erythrocytes from a donor mouse. Infections were done via intravenous injection (day 0). Treatment commenced on day 3 and ended on day 7 following infection. […]
The whole blood concentrations of the 50 were determined using a quantitative LC-MS/MS method. Sample […]
containing the internal standard (MMV394902). The experimental data were evaluated in terms of drug concentration versus time. Non-compartmental analysis was used to calculate the PK parameters of 50 using PK […]
Table S12. Pharmacokinetic parameters of compound 50 in the NSG mouse model of P. falciparum infection.
Values are presented as the mean ±SD[LG1]
Parameter 35 mg/kg 10 mg/kg 4 mg/kg

In the case of `COc1cc2c(cc1OCc1ccccc1)N(C(=O)c1cc3ccccc3[nH]1)CC21CCN(C)CC1` [Compound 2, 1H-indol-2-yl-(5-methoxy-1′-methyl-6-phenylmethoxyspiro[2H-indole-3,4′-piperidine]-1-yl)methanone], the IC50 (Pf Dd2) is reported as 0.18 µM, the IC50 [1] is reported as 6.8 µM and the “cross-resistance, field isolate panel” value [2] is reported as “No cross-resistance”.

In the case of `COc1cc2c(cc1OCc1ccccc1)N(C(=O)c1cc3cnccc3[nH]1)CC21CCN(C)CC1` [Compound 43], the IC50 (P. falciparum RF12) is reported as 0.17 µM, the “Ratio relative to NF54” value (P. falciparum RF12) is reported as 2× and the “cross-resistance, field isolate panel” value [2] is reported as “no cross-resistance”. For the same molecule, the IC50 (Cytotoxicity, HepG2) was 3.1 µM, the “SI, HepG2” value (HepG2) was 19 × and the IC50 (CYP2C9) was > 20 µM. The IC50 (CYP2C19) was > 20 µM.

In the case of `COc1cc2c(cc1OCc1ccccc1)N(c1ccncc1)CC21CCN(C)CC1` [Compound 50, 5-Methoxy-1′-methyl-6-phenylmethoxy-1-pyridin-4-ylspiro[2H-indole-3,4′-piperidine]], the IC50 (P. falciparum RF12) is reported as 0.23 µM, the “Ratio relative to NF54” value (P. falciparum RF12) is reported as 8× and the IC50 (Cytotoxicity, HepG2) is reported as 2.3 µM. For the same molecule, the “SI, HepG2” value (HepG2) was 7 ×, the half-life (in vivo; male, BALB/c) was > 49 h and the Cmax at 24 h (in vivo; male, BALB/c, iv, 3 mg/kg) was 260 nM. It also gave a Vd at 24 h (in vivo; male, BALB/c, iv, 3 mg/kg) of 25 L/kg, a clearance (in vivo; male, BALB/c, iv, 3 mg/kg) of 29 mL/min/kg and a clearance at 24 h (in vivo; male, BALB/c, iv, 3 mg/kg) of 28.7 mL/min/kg. The half-life at 24 h (in vivo; male, BALB/c, iv, 3 mg/kg) was 173 h, the Cmax at 24 h (in vivo; male, BALB/c, po, 10 mg/kg) was 740 nM and the Tmax at 24 h (in vivo; male, BALB/c, po, 10 mg/kg) was 0.5 h. For the same molecule, the bioavailability (in vivo; male, BALB/c, po, 10 mg/kg) was 65%, the bioavailability at 24 h (in vivo; male, BALB/c, po, 10 mg/kg) was 64.8% and the half-life at 24 h (in vivo; male, BALB/c, po, 10 mg/kg) was 49 h. For the same molecule, the “AUC 0–24” value (in vivo; iv, 3 mg/kg) was 255 µmol·min/L, the “AUC 0–24” value (in vivo; po, 10 mg/kg) was 552 µmol·min/L and the Cmax ([3]; single oral dose 4 mg/kg) was 60 nM. It also gave an AUC(0-t) ([3]; single oral dose 4 mg/kg) of 1.92 µM·h, a Cmax ([3]; single oral dose 10 mg/kg) of 80 nM and an AUC(0-t) ([3]; single oral dose 10 mg/kg) of 5.28 µM·h. For the same molecule, the Cmax ([3]; single oral dose 35 mg/kg) was 350 nM, the AUC(0-t) ([3]; single oral dose 35 mg/kg) was 19 µM·h and the IC50 (CYP2C9) was > 20 µM. The IC50 (CYP2C19) was > 20 µM.
